The values below come from ChEMBL document CHEMBL4725366, “Expanding the scope of synthetic 1,2,4-trioxanes towards Trypanosoma cruzi and Leishmania donovani” (Bioorg Med Chem Lett, 2020).

The nature of data set [1]: Selectivity index, ratio of CC50 for African green monkey Vero cells to IC50 for Leishmania donovani promastigotes. The class given is toxicity. As to conditions: read-out: Ratio CC50/IC50.
For data set [2], the system named is Trypanosoma cruzi. Kind of data set: Antitrypanosomal activity against Trypanosoma cruzi trypomastigotes. The class given is functional, organism-based.
The nature of data set [3]: Selectivity index, ratio of CC50 for African green monkey Vero cells to IC50 for Trypanosoma cruzi trypomastigotes. As to conditions: read-out: Ratio CC50/IC50. The class given is toxicity.
The test system of data set [4] is Trypanosoma cruzi. Kind of data set: Antitrypanosomal activity against Trypanosoma cruzi epimastigotes. The class given is functional, organism-based.
The test system of data set [5] is Leishmania donovani. Kind of data set: Potency index, ratio of Artemisinin IC50 to test compound IC50 for antileishmanial activity against Leishmania donovani promastigotes. The class given is functional.
Data set [6] has as its system Leishmania donovani. Description: Antileishmanial activity against Leishmania donovani promastigotes. The class given is functional, organism-based.
In the next data set the test system is Vero. Kind of data set: Cytotoxicity against African green monkey Vero cells up to 4.76 ug/ml by neutral red assay. The class given is cell-based. As to conditions: chlorocebus sabaeus, dose <=4.76 µg/ml.
Data set [7] deals with Trypanosoma cruzi. Description: Trypanocidal activity against Trypanosoma cruzi epimastigotes at 100 uM measured after 24 hrs. The class given is functional.
Data set [8] can be described thus: Selectivity index, ratio of CC50 for African green monkey Vero cells to IC50 for Trypanosoma cruzi epimastigotes. The conditions noted are these: read-out: Ratio CC50/IC50. The class given is toxicity.
The nature of data set [9]: Cytotoxicity against African green monkey Vero cells by neutral red assay. As to conditions: chlorocebus sabaeus. The class given is cell-based.
The subject of data set [10] is Trypanosoma cruzi. Description: Potency index, ratio of benznidazole IC50 to test compound IC50 for antitrypanosomal activity against Trypanosoma cruzi trypomastigotes. The class given is functional.
Data set [11] relates to Trypanosoma cruzi. Kind of data set: Potency index, ratio of artesunate IC50 to test compound IC50 for antitrypanosomal activity against Trypanosoma cruzi trypomastigotes. The class given is functional.

The IC50 is the concentration needed to halve the response being measured. As a reminder, the IC90 is the point of the concentration-response curve where the effect stands at 90%. In general, CC50 refers to the concentration giving 50% cytotoxicity.

Structures are written as SMILES.

As for `CC(=O)CCCC(C)(C)C(=O)/C=C/C(=O)/C=C/c1ccc(C(=O)NCc2ccccc2)cc1`, the selectivity ratio in data set [1] is 1.98; in data set [3], not below 1.05. Further, the IC50 was 10.2 µM in the data set with Trypanosoma cruzi [2], more than 100 µM with Trypanosoma cruzi [4] and 5.39 µM in the data set on Leishmania donovani [6]. For the same molecule, the “Ratio IC50” value in the data set with Leishmania donovani [5] is reported as more than 10. The same molecule returned an IC90 in the data set on Leishmania donovani [6] of 13.5 µM.
Regarding `COC(=O)c1ccc(/C=C/[C@]23C=C[C@@]4(OO2)C(C)(C)CCC(OC(C)=O)[C@]4(C)O3)cc1` (mixture of isomers), the selectivity ratio in [1] was determined as 1.59. The “Ratio IC50” value in the data set with Leishmania donovani [5] is more than 10. In the data set with Vero, the Activity entry was “Non-Toxic”. In the data set on Leishmania donovani [6], this molecule returned an IC50 of 7.01 µM and an IC90 of 15.2 µM.
Turning to `CC1(C)CCC[C@]2(C)O[C@@]3(/C=C/c4ccc(C(=O)NCc5ccccc5)cc4)C=C[C@@]12OO3` (racemic), the selectivity ratio was 4.33 in data set [1], not below 4.3 in data set [8] and not below 9.21 in [3]. Besides, the Activity with Trypanosoma cruzi [7] came to 100%. Besides, the IC50 in the data set on Trypanosoma cruzi [2] was 1.16 µM; in the data set with Trypanosoma cruzi [4] it was 2.48 µM; with Leishmania donovani [6], 2.47 µM. The CC50 in [9] is more than 10.7 µM. The “Ratio IC50” value in the data set with Leishmania donovani [5] is on record as more than 10; in the data set on Trypanosoma cruzi [10], 13; with Trypanosoma cruzi [11], 10. Moreover, the IC90 in the data set on Leishmania donovani [6] worked out at 15.7 µM.
Regarding `CC1(C)CC[C@H](O)[C@]2(C)O[C@@]3(/C=C/c4ccc(C(=O)NCc5ccccc5)cc4)C=C[C@@]12OO3` (racemic), the selectivity ratio in data set [1] was determined as 2.69. In addition, in data set [9], the half-maximal cytotoxic concentration (CC50) was not below 9.33 µM. In the data set on Leishmania donovani [5], the “Ratio IC50” value is more than 10. In the data set with Leishmania donovani [6], this molecule came in with an IC50 of 3.47 µM and an IC90 of 5.42 µM.
In the data set with Leishmania donovani [6], `CC1(C)CC[C@@H](O)[C@]2(C)O[C@@]3(C)C=C[C@@]12OO3` (racemic) had an IC50 of more than 100 µM and an IC90 of more than 100 µM.
`CC1(C)CC=C[C@]2(C)O[C@@]3(C)C=C[C@@]12OO3` (racemic): in the data set with Leishmania donovani [6], the IC50 was more than 100 µM and the IC90 was more than 100 µM.
For `CC1(C)CC=C[C@]2(C)O[C@@]3(C)CC[C@@]12OO3` (racemic), in the data set with Leishmania donovani [6], the IC50 is more than 100 µM and the IC90 is more than 100 µM.
For `CC1(C)CCC(=O)[C@]2(C)O[C@@]3(C)C=C[C@@]12OO3` (racemic), in the data set on Leishmania donovani [6], the half-maximal inhibitory concentration (IC50) was more than 100 µM and the IC90 is more than 100 µM.
In the data set with Leishmania donovani [6], `CC1(C)CC[C@@H](O)[C@]2(C)O[C@@]3(C)CC[C@@]12OO3` (racemic) came in with a half-maximal inhibitory concentration (IC50) of more than 100 µM and an IC90 of more than 100 µM.
In the case of `CC1(C)CC[C@@H](O)[C@]2(C)O[C@@]3(/C=C/c4ccc(C(=O)NCc5ccccc5)cc4)C=C[C@@]12OO3` (racemic), the figures for the selectivity ratio in data set [1], in data set [8] and in data set [3] were 1.36, not below 3.88 and not below 16.6, respectively. Besides, the values for the Activity in the data set with Trypanosoma cruzi [7] and in the data set with Vero were 100% and “Non-Toxic”, respectively. The IC50 with Trypanosoma cruzi [2] came out at 0.62 µM; with Trypanosoma cruzi [4], 2.66 µM; with Leishmania donovani [6], 7.59 µM. The “Ratio IC50” value was more than 10 with Leishmania donovani [5], 13 in the data set with Trypanosoma cruzi [10] and 20 in the data set on Trypanosoma cruzi [11]. The molecule further showed an IC90 in the data set on Leishmania donovani [6] of 15.2 µM.
In the data set with Leishmania donovani [6], `CC(=O)O[C@H]1CCC(C)(C)[C@@]23C=C[C@@](C)(OO2)O[C@@]13C` (racemic) returned an IC50 of more than 100 µM and an IC90 of more than 100 µM.
On to `CC1(C)CCC[C@]2(C)O[C@@]3(C)C=C[C@@]12OO3` (racemic), for which, in the data set with Leishmania donovani [6], the IC50 is more than 100 µM and the IC90 is more than 100 µM.
On to `CC1(C)CC[C@H](O)[C@]2(C)O[C@@]3(C)C=C[C@@]12OO3` (racemic), for which, in the data set with Leishmania donovani [6], the IC50 is more than 100 µM and the IC90 was more than 100 µM.
Regarding `CC(=O)O[C@@H]1CCC(C)(C)[C@@]23CC[C@@](C)(OO2)O[C@@]13C` (racemic), in the data set on Leishmania donovani [6], the IC50 was more than 100 µM and the IC90 was more than 100 µM.
Turning to `CC1(C)CCC(=O)[C@]2(C)O[C@@]3(C)CC[C@@]12OO3` (racemic), in the data set on Leishmania donovani [6], the IC50 is more than 100 µM and the IC90 was more than 100 µM.
`COC(=O)c1ccc(/C=C/[C@]23C=C[C@@]4(OO2)C(C)(C)CCC[C@]4(C)O3)cc1` (racemic): the values for the selectivity ratio in [1], in [8] and in data set [3] were 1.54, not below 5.56 and not below 15.3, respectively. This molecule also came in with an Activity with Trypanosoma cruzi [7] of 100%. Moreover, the IC50 with Trypanosoma cruzi [2] was 0.84 µM; in the data set with Trypanosoma cruzi [4], 2.27 µM; in the data set on Leishmania donovani [6], 8.38 µM. For the same molecule, in data set [9], the CC50 was more than 12.8 µM. The results for the “Ratio IC50” value with Leishmania donovani [5], in the data set on Trypanosoma cruzi [10] and with Trypanosoma cruzi [11] were more than 10, 13 and 10, respectively. The IC90 in the data set with Leishmania donovani [6] worked out at 18.9 µM.
Consider `CC1(C)CC[C@H](O)[C@]2(C)O[C@@]3(C)CC[C@@]12OO3` (racemic), for which, in the data set on Leishmania donovani [6], the IC50 was more than 100 µM and the IC90 was more than 100 µM.
Regarding `COC(=O)c1ccc(/C=C/[C@]23C=C[C@@]4(OO2)C(C)(C)CC[C@@H](O)[C@]4(C)O3)cc1` (racemic), the selectivity ratio in data set [1] came out at 2.38. The same molecule showed a CC50 in data set [9] of more than 11.1 µM. Besides, in the data set with Leishmania donovani [5], the “Ratio IC50” value is reported as more than 10. For the same molecule, in the data set with Leishmania donovani [6], it took 5.18 µM to reach half-maximal inhibition (IC50) and the IC90 turned out to be 15.5 µM.
On to `CC(=O)O[C@@H]1CCC(C)(C)[C@@]23C=C[C@@](C)(OO2)O[C@@]13C` (racemic), for which, in the data set with Leishmania donovani [6], the IC50 was more than 100 µM and the IC90 was more than 100 µM.
In the data set with Leishmania donovani [6], `C[C@@H]1[C@H](O)[C@@H](C)/C=C/C=C/C=C/C=C/C=C/C=C/C=C/[C@H](O[C@@H]2O[C@H](C)[C@@H](O)[C@H](N)[C@@H]2O)C[C@@H]2O[C@](O)(C[C@@H](O)C[C@@H](O)[C@H](O)CC[C@@H](O)C[C@@H](O)CC(=O)O[C@H]1C)C[C@H](O)[C@H]2C(=O)O` [AMPHOTERICIN B] yielded an IC50 of 0.19 µM and an IC90 of 0.41 µM.
With `C[C@@H]1CC[C@H]2[C@@H](C)C(=O)O[C@@H]3O[C@@]4(C)CC[C@@H]1[C@]32OO4` [ARTEMISININ], in the data set on Leishmania donovani [6], the IC50 was more than 100 µM.
For `C[C@H]1[C@H](OC(=O)CCC(=O)O)O[C@@H]2O[C@@]3(C)CC[C@H]4[C@H](C)CC[C@@H]1[C@@]24OO3` [ARTESUNATE], the IC50 in the data set with Trypanosoma cruzi [2] was 13 µM; in the data set with Trypanosoma cruzi [4], 9.44 µM; in the data set with Leishmania donovani [6] it was 12.1 µM.
`O=C(Cn1ccnc1[N+](=O)[O-])NCc1ccccc1` [BENZNIDAZOLE]: the IC50 was 14.9 µM in the data set with Trypanosoma cruzi [2] and 32.5 µM in the data set on Trypanosoma cruzi [4].
`N=C(N)c1ccc(OCCCCCOc2ccc(C(=N)N)cc2)cc1` [PENTAMIDINE] displayed an IC90 in the data set on Leishmania donovani [6] of 5.29 µM.
